{"source": "patent US10787490B2", "about": "“Peptide inhibitors of interleukin-23 receptor and their use to treat inflammatory diseases” (Protagonist Therapeutics, Inc., priority 2015, dated 2020)", "key": {"[1]": {"tested_on": "TNBS-induced acute colitis, Sprague-Dawley rats", "test": "TNBS induced colitis in rat", "format": "in vivo"}, "[2]": {"test": "Stability in simulated intestinal fluid (SIF)", "format": "in vitro ADME", "parameters": "dose or concentration left out as unconfirmed", "settings": "simulated intestinal fluid (SIF) with pancreatin, pH 6.8; read-out: Stability (t1/2, hr) SIF (converted)"}, "[3]": {"test": "Stability in simulated gastric fluid (SGF)", "format": "in vitro ADME", "settings": "pig, simulated gastric fluid (SGF) with porcine pepsin, pH 2"}, "[4]": {"tested_on": "distal colon tissue of TNBS-exposed rats", "test": "Biomarkers in distal colon of TNBS rats (ELISA)", "format": "in vivo, rat", "settings": "vs vehicle treated controls", "procedure": "Levels of inflammatory markers were examined in the colons. The distal colon tissue samples, designated for protein expression analysis, were flash frozen after collection. For protein extraction, the samples were thawed, weighed and homogenized in the extraction buffer (PBS pH 7.2 supplemented with Protease Inhibitors, 3× volume:weight). The homogenates were centrifuged at 13 krpm at 4° C. for 15 minutes, a total of two times to remove the debris. The supernatants were saved in multiple aliquots in −80° C. and subsequently used for protein expression analysis on ELISA. The total protein in each sample was quantified using BCA assay."}, "[5]": {"tested_on": "IL-23R in human DB cells", "test": "Schild analysis, Human DB Cell (pSTAT3)", "format": "cell-based", "settings": "0.3-100 nM peptide"}, "[6]": {"test": "DTT stability assay (redox stability)", "format": "in vitro ADME", "settings": "half-life, 0.5 mM DTT, room temperature, numeric"}, "[7]": {"molecular_target": "human IL-23R (IL23R_huFC) (Homo sapiens, UniProt Q5VWK5)", "sequence (Q5VWK5 24-354 limits assumed, looked up)": "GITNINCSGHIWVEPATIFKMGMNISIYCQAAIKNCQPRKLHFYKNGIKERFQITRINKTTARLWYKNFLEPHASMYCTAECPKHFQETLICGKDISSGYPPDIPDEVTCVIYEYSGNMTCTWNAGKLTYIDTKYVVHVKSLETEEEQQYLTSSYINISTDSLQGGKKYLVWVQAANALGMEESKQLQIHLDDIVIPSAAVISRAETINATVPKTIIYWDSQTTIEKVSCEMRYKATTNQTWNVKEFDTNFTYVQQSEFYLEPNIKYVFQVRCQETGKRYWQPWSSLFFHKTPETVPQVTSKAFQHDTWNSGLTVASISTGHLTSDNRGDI", "settings": "read-out: ELISA IL23R/IL23 in nMoles (IC50); non-cyclic peptides"}, "[8]": {"tested_on": "DSS-induced colitis, Sprague Dawley rats", "test": "Rat Colitis Model: 9 Days of 3% DSS-Containing Drinking Water", "format": "in vivo", "settings": "100 mg/kg PO, QD"}, "[9]": {"tested_on": "rat splenocytes", "test": "Rat Splenocyte Assay (IL-17A)", "format": "cell-based", "settings": "IL-17A produced by activated splenocytes exposed to IL-23; read-out: Cell assay (nM) Rat (Spleen), IC50", "procedure": "A new assay developed was the rat splenocyte assay.\nBriefly, splenocytes freshly isolated from rat were seeded in 96-well tissue culture plates in complete medium containing IL-10. […] Changes in IL-17A levels in the supernatants were detected using an ELISA."}, "[10]": {"tested_on": "Cyno IL-23R", "format": "binding"}, "[11]": {"settings": "read-out: Cross Reactivity (nM) ELISA cyno IL23R IL23"}}, "note": "Where two headings read alike, the source gives them in different places. Where a SMILES comes first, the peptide text is derived from it. Bridges are numbered along the chain shown (N, C = ends). [ ]: non-standard residue; d: D form. 2Nal = N[C@@H](Cc1ccc2ccccc2c1)C(=O)O; AEF = NCCOc1ccc(C[C@H](N)C(=O)O)cc1; Pen = CC(C)(S)[C@H](N)C(=O)O; Thp = NC1(C(=O)O)CCOCC1"}
{"compound": "CC(=O)N[C@@H]1CCSC[C@@H](C(=O)N[C@@H](Cc2ccc(OCCN)cc2)C(=O)N[C@@H](Cc2ccc3ccccc3c2)C(=O)NC2(C(=O)N[C@@H](CCC(=O)O)C(=O)N[C@@H](CC(N)=O)C(=O)N[C@@H](CC(N)=O)C(N)=O)CCOCC2)NC(=O)[C@H](CCC(N)=O)NC(=O)[C@H](Cc2c[nH]c3ccccc23)NC(=O)[C@H]([C@@H](C)O)NC(=O)[C@@H](CCC(N)=O)NC1=O", "note": "[SEQ ID NO: 980]", "values": [{"measurement": "colon macroscopic score", "setting": "[1]; Example 14, vs vehicle", "result": "significantly reduced"}, {"measurement": "sum of the histopathology score", "setting": "[1]; Example 14, vs vehicle", "result": "significantly reduced"}, {"measurement": "weight loss", "setting": "[1]; Example 14, 37 mg/kg/day oral", "result": "prevented"}, {"measurement": "half-life", "setting": "[2]", "result": 11, "unit": "h"}, {"measurement": "half-life at 20 μM", "setting": "[3]", "result": 10, "unit": "h"}, {"measurement": "IL-22 level in colon", "setting": "[4]", "result": "reduced"}, {"measurement": "MPO level in colon", "setting": "[4]", "result": "reduced"}]}
{"compound": "CC(=O)NCCCC[C@H](NC(=O)C1(NC(=O)[C@H](Cc2ccc3ccccc3c2)NC(=O)[C@H](Cc2ccc(OCCN)cc2)NC(=O)[C@H]2NC(=O)[C@H](CCC(N)=O)NC(=O)[C@H](Cc3c[nH]c4ccccc34)NC(=O)[C@H]([C@@H](C)O)NC(=O)[C@H](CC(N)=O)NC(=O)[C@@H](NC(C)=O)C(C)(C)SSC2(C)C)CCOCC1)C(=O)N[C@@H](CC(N)=O)C(=O)N[C@@H](CC(N)=O)C(=O)N[C@@H](CC(N)=O)C(N)=O", "note": "[SEQ ID NO: 1211, Ac-[Pen]-NTWQ-[Pen]-[Phe[4-(2-aminoethoxy)]-[2-Nal]-[4-amino-4-carboxy-tetrahydropyran]-[Lys(Ac)]-NNN-NH2] (Ac-[Pen]NTWQ[Pen][AEF][2Nal][Thp]K(Ac)NNN-NH2; disulfide 1-6)", "values": [{"measurement": "Schild slope", "setting": "[5]", "result": 0.76}]}
{"compound": "CC(=O)NC1CCSCC(C(=O)NC(Cc2ccc(OCCN)cc2)C(=O)NC(Cc2ccc3ccccc3c2)C(=O)NC2(C(=O)NC(CCC(=O)O)C(=O)NC(CC(N)=O)C(=O)NC(CC(N)=O)C(N)=O)CCOCC2)NC(=O)C(CCC(N)=O)NC(=O)C(Cc2c[nH]c3ccccc23)NC(=O)C(C(C)O)NC(=O)C(CCC(N)=O)NC1=O", "note": "(stereo not shown) [SEQ ID NO: 1290, Ac-cyclo[[Abu]-QTWQC]-[Phe[4-(2-aminoethoxy)]-[2-Nal]-[4-amino-4-carboxy-tetrahydropyran]-ENN-NH2]", "values": [{"measurement": "DTT Stability", "setting": "[6]", "result": ">120", "unit": "min"}, {"measurement": "IC50", "setting": "[7]", "result": "> 100000", "unit": "nM"}]}
{"compound": "O=C(O)c1cc(/N=N/c2ccc(S(=O)(=O)Nc3ccccn3)cc2)ccc1O", "note": "[sulfasalazine]", "values": [{"measurement": "terminal ratio of colon weight:colon length", "setting": "[8]; difference vs DSS alone", "result": "significant"}, {"measurement": "disease score (DAI)", "setting": "[8]; from Day 5, vs DSS alone", "result": "attenuated"}]}
{"compound": "Ac-[Pen]-NTWQ-[Pen]-[Phe[4-(2-aminoethoxy)]-[2-Nal]-[4-amino-4-carboxy-tetrahydropyran]-[Lys(Ac)]—NN—NH2 [SEQ ID NO: 1185]", "values": [{"measurement": "IC50", "setting": "[9]", "result": 35, "unit": "nM"}, {"measurement": "histopathology scores", "setting": "[1]; Example 12", "result": "did not significantly reduce"}, {"measurement": "colon macroscopic score", "setting": "[1]; Example 12, vs vehicle", "result": "significantly reduced"}, {"measurement": "weight loss", "setting": "[1]; Example 12, Peptide 1185 37 mg/kg/day PO, anti-IL-23p19 4 mg/kg ip, prednisolone 10 mg/day P.O., vs vehicle", "result": "did not significantly prevent"}, {"measurement": "IC50", "setting": "[10]; IL-23/IL-23R competitive binding, cyno, read-out: ELISA (nM) Cyno, IC50", "result": 3, "unit": "nM"}, {"measurement": "IL-17A level in colon", "setting": "[4]", "result": "did not significantly reduce"}, {"measurement": "IL-22 level in colon", "setting": "[4]", "result": "did not significantly reduce"}, {"measurement": "MPO level in colon", "setting": "[4]", "result": "did not significantly reduce"}]}
{"compound": "H-CSNWVCYWHTYG-NH2 (cysteine pairing not given here) [SEQ ID NO: 198]", "values": [{"measurement": "IC50", "setting": "[10]; [11]", "result": "< 250", "unit": "nM"}]}
{"compound": "Hy-CADWVCYWHTFG-NH2 [SEQ ID NO: 169]", "values": [{"measurement": "IC50", "setting": "[10]; [11]", "result": "1000 to 10000", "unit": "nM"}]}
